Test results: ChEMBL document CHEMBL1641446, “Novel pyrrolo[2,1-f][1,2,4]triazin-4-amines: Dual inhibitors of EGFR and HER2 protein tyrosine kinases” (Bioorg Med Chem Lett, 2011); call rule not given here

Columns and labels:
A2780 = test: Antiproliferative activity against human A2780 cells; format: functional, cell-based
[1] = target: Receptor tyrosine-protein kinase erbB-2 (Homo sapiens) (UniProt P04626); test: Inhibition of HER2
[2] = target: Epidermal growth factor receptor (Homo sapiens) (UniProt P00533); test: Inhibition of EGFR
NCI-N87 [3] = test: Antiproliferative activity against human NCI-N87 cells; format: functional, cell-based
[4] = Antitumor activity against human GEO cells xenografted in po dosed athymic mouse assessed as minimum effective dose; format: functional; conditions: read-out: MED
[5] = target: Tyrosine-protein kinase Lck (Homo sapiens, UniProt P06239); test: Inhibition of LCK
[6] = Drug level in BALB/c mouse at 15 mg/kg, po after 24 hrs; format: ADME, organism-based; design: dose 15 mg/kg, route oral; conditions: in vivo, read-out: Drug uptake
[7] = target: Vascular endothelial growth factor receptor 2 (Homo sapiens, UniProt P35968); test: Inhibition of KDR
[8] = Fraction unbound in BALB/c mouse serum at 10 uM by equilibrium dialysis; format: ADME, cell-free
[9] = AUC ( 0 to 24 hrs) in BALB/c mouse at 15 mg/kg, po; format: ADME, organism-based; design: time < 24 hr, dose 15 mg/kg, route oral; conditions: plasma
[10] = Drug level in BALB/c mouse at 15 mg/kg, po after 3 hrs; format: ADME, organism-based; design: dose 15 mg/kg, route oral; conditions: in vivo, read-out: Drug uptake
[11] = Drug level in BALB/c mouse at 240 mg/kg, po after 24 hrs; format: ADME, organism-based; design: dose 240 mg/kg, route oral; conditions: in vivo, read-out: Drug uptake
[12] = AUC ( 0 to 24 hrs) in BALB/c mouse at 240 mg/kg, po; format: ADME, organism-based; design: time < 24 hr, dose 240 mg/kg, route oral; conditions: plasma
NCI-N87 [13] = test: Antitumor activity against human NCI-N87 cells xenografted in po dosed athymic mouse assessed as minimum effective dose administered Q1D for 14 days; conditions: 336 h, read-out: MED
[14] = Cmax in BALB/c mouse at 50 mg/kg, po; format: ADME, organism-based; design: dose 50 mg/kg, route oral; conditions: in vivo
[15] = Drug level in BALB/c mouse at 240 mg/kg, po after 3 hrs; format: ADME, organism-based; design: dose 240 mg/kg, route oral; conditions: in vivo, read-out: Drug uptake
[16] = Drug level in BALB/c mouse at 50 mg/kg, po after 4 hrs; format: ADME, organism-based; design: dose 50 mg/kg, route oral; conditions: in vivo, read-out: Drug uptake
[17] = Homo sapiens, A2780, read-out: IC50
[18] = Homo sapiens, NCI-N87, read-out: IC50

Sequence of Epidermal growth factor receptor (Homo sapiens) (P00533 whole entry, looked up): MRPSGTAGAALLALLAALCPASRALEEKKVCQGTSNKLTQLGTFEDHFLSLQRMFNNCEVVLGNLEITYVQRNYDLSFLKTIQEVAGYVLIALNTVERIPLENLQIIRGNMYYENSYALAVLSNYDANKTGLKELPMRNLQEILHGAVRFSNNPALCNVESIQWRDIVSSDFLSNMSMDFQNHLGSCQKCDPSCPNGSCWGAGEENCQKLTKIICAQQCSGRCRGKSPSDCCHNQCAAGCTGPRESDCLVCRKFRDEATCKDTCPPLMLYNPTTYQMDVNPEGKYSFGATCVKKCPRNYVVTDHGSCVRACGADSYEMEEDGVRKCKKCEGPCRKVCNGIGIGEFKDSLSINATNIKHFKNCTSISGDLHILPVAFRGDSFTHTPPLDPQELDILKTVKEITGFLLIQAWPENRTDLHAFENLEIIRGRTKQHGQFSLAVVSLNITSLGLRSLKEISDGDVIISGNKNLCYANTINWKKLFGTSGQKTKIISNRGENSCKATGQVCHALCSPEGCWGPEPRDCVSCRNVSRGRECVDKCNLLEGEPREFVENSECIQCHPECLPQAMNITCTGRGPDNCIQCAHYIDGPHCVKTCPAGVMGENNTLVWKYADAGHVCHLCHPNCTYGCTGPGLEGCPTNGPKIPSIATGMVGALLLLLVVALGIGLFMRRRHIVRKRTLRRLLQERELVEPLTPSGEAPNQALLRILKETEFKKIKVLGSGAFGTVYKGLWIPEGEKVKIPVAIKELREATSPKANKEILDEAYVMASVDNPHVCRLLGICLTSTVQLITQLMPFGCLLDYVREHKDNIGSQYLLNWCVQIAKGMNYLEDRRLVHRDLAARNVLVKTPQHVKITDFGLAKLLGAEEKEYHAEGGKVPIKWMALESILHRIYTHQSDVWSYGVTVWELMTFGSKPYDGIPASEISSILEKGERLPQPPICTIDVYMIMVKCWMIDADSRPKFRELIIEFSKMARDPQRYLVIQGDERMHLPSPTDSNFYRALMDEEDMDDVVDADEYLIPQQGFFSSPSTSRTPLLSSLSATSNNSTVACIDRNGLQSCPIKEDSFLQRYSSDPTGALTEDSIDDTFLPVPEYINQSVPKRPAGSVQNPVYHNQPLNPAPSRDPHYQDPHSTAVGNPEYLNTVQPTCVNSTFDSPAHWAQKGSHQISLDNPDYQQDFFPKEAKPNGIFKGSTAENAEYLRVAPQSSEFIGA
Sequence of Receptor tyrosine-protein kinase erbB-2 (Homo sapiens) (P04626 whole entry, looked up): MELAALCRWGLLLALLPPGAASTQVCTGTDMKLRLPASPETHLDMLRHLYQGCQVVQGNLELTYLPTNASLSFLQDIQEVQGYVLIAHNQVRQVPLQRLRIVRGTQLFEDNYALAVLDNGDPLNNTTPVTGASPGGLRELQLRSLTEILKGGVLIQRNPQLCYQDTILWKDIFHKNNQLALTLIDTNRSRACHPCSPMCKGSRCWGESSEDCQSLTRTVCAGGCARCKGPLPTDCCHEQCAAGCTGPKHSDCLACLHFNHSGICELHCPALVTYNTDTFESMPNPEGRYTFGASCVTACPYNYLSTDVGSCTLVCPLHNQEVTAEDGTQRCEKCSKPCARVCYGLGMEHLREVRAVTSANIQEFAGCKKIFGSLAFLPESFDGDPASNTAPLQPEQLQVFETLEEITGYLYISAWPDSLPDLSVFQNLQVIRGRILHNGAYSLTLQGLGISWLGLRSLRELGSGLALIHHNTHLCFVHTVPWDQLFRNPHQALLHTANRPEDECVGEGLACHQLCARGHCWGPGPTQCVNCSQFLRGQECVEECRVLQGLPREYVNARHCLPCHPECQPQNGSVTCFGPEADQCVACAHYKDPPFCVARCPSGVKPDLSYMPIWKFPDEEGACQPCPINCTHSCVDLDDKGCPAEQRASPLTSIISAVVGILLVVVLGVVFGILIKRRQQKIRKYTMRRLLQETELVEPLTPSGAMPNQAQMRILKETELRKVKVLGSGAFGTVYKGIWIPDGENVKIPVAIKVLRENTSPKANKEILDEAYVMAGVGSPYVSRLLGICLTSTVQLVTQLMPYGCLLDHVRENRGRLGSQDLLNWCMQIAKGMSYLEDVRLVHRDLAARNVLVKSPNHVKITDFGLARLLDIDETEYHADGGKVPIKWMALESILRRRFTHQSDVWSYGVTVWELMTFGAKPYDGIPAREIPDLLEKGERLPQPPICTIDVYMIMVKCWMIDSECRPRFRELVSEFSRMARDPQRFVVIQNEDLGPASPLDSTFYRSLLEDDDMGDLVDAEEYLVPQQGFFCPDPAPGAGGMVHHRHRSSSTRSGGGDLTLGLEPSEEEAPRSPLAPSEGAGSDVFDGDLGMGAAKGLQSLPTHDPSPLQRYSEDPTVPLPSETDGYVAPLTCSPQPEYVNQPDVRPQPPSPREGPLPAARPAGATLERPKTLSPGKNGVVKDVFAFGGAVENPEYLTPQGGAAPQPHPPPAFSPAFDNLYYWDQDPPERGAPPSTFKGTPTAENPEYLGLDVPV
Sequence of Vascular endothelial growth factor receptor 2 (P35968 whole entry): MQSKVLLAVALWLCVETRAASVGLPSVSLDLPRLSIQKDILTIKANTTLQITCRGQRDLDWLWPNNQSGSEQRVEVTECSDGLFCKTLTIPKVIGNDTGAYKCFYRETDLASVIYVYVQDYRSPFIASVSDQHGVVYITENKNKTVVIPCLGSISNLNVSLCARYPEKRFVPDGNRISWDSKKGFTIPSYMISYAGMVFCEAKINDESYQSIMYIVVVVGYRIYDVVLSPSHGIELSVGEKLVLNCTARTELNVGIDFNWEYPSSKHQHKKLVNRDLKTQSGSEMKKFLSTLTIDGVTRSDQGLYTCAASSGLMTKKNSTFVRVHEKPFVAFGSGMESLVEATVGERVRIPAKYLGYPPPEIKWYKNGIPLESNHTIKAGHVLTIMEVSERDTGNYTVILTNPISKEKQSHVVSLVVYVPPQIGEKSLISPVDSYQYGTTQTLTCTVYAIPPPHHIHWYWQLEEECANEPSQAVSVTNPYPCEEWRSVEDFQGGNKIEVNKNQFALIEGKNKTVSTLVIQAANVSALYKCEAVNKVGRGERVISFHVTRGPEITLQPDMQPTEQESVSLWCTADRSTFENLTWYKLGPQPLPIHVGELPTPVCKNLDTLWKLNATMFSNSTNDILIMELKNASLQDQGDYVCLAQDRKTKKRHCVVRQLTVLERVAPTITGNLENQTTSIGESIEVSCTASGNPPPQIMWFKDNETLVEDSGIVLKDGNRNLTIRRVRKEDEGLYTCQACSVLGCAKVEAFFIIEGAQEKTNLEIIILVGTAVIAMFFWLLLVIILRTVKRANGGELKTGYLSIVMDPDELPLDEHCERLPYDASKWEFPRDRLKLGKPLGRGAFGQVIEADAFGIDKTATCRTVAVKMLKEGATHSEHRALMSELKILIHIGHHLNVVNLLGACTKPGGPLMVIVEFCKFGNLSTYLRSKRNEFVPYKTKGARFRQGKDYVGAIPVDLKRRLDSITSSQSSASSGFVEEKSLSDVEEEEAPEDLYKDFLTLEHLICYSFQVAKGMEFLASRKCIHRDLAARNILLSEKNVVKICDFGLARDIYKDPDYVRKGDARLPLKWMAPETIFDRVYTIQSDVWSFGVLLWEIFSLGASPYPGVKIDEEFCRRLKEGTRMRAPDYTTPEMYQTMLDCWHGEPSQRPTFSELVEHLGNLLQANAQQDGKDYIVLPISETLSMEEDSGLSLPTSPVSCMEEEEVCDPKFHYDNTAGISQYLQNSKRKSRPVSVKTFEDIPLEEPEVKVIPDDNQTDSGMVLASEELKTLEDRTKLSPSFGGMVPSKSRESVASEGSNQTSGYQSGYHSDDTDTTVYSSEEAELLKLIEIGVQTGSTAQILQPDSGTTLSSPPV
Sequence of Tyrosine-protein kinase Lck (P06239 whole entry): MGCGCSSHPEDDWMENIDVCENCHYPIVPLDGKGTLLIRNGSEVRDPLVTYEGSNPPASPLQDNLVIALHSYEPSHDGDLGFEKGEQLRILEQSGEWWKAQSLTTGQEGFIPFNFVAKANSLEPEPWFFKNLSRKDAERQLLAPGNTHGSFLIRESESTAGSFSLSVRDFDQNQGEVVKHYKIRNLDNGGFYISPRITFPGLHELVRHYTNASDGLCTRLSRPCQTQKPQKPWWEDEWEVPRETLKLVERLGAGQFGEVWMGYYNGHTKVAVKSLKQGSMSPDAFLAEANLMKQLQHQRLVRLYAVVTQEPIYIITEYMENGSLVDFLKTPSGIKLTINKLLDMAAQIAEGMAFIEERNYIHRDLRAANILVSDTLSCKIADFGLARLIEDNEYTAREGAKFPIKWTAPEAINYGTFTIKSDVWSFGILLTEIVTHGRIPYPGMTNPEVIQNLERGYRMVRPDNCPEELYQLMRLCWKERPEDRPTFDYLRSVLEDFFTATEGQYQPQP

IC50 [1] [nM]	IC50 [2] [nM]	IC50 (A2780; [17]) [nM]	SMILES	IC50 (NCI-N87 [3]; [18]) [nM]	also measured
> 1000	> 1000	–	Cn1ncc2cc(Nc3ncnn4ccc(COC[C@@H]5CNCCO5)c34)ccc21	–	IC50 (A2780; a2780): Not Active; IC50 (NCI-N87 [3]; nci-n87): Not Active
950	360	–	Cn1ncc2cc(Nc3ncnn4ccc(CN5CCC(N)CC5)c34)ccc21	–	IC50 (A2780; a2780): Not Active; IC50 (NCI-N87 [3]; nci-n87): Not Active
670	20	3900	C#Cc1cccc(Nc2ncnn3ccc(COC[C@@H]4CNCCO4)c23)c1	4400	–
10	7	2300	C#Cc1cccc(Nc2ncnn3ccc(CN4CCC(N)CC4)c23)c1	120	minimal effective dose [4]: 15 mg/kg
–	–	3700	NC1CCN(Cc2ccn3ncnc(Nc4ccccc4)c23)CC1	140	–
> 1000	880	–	CC(C)Nc1ncnn2ccc(CN3CCC(N)CC3)c12	–	–
660	20	> 5000	Cc1ccccc1Nc1ncnn2ccc(CN3CCC(N)CC3)c12	3300	–
20	5	> 5000	Cc1cccc(Nc2ncnn3ccc(CN4CCC(N)CC4)c23)c1	140	minimal effective dose [4]: 60 mg/kg
50	6	> 5000	Cc1ccc(Nc2ncnn3ccc(CN4CCC(N)CC4)c23)cc1	790	–
32	6	> 5000	NC1CCN(Cc2ccn3ncnc(Nc4cccc(F)c4)c23)CC1	280	–
9	4	> 5000	NC1CCN(Cc2ccn3ncnc(Nc4cccc(Cl)c4)c23)CC1	60	minimal effective dose [4]: 60 mg/kg
6	4	2600	NC1CCN(Cc2ccn3ncnc(Nc4cccc(Br)c4)c23)CC1	50	–
130	34	4000	NC1CCN(Cc2ccn3ncnc(Nc4cc(Cl)cc(Cl)c4)c23)CC1	3360	–
10	6	> 5000	NC1CCN(Cc2ccn3ncnc(Nc4ccc(F)c(Cl)c4)c23)CC1	120	IC50 [5]: 370 nM; minimal effective dose [4]: 15 mg/kg; concentration at 24 h [6]: 6.8 µM; IC50 [7]: 110 nM; fraction unbound at 10 µM [8]: 0.012; AUC(0-t) at 24 h [9]: 160 µM·h; concentration at 3 h [10]: 7.2 µM
210	70	> 5000	COc1ccc(Nc2ncnn3ccc(CN4CCC(N)CC4)c23)cc1Cl	1210	–
–	–	–	Fc1cccc(Cn2ncc3cc(Nc4ncnn5ccc(COC[C@@H]6CNCCO6)c45)ccc32)c1	–	concentration at 24 h [11]: 0.1 µM; AUC(0-t) at 24 h [12]: 100 µM·h; minimal effective dose (NCI-N87 [13]): 60 mg/kg; Cmax [14]: 9.5 µM; fraction unbound at 10 µM [8]: 0.026; concentration at 3 h [15]: 5.8 µM
–	–	–	Cc1c(NC(=O)OC[C@@H]2COCCN2)cn2ncnc(Nc3ccc4c(cnn4Cc4cccc(F)c4)c3)c12 [AC-480]	–	minimal effective dose [4]: 120 mg/kg; minimal effective dose (NCI-N87 [13]): 120 mg/kg

SMILES	IC50 [1] [nM]	IC50 [2] [nM]	IC50 (A2780; [17]) [nM]	IC50 (NCI-N87 [3]; [18]) [nM]	also measured
NC1CCN(Cc2ccn3ncnc(Nc4ccc5c(cnn5Cc5cccc(F)c5)c4)c23)CC1	–	22	–	–	concentration at 4 h [16]: 2.7 µM; minimal effective dose (NCI-N87 [13]): 60 mg/kg; Cmax [14]: 4.5 µM
